Measured values reported in patent publication US7858105B2, “Inhibitors of melanocyte tyrosinase as topical skin lighteners” (Mediquest Therapeutics, Inc., priority 2000, dated 2010).

Molecular target: T1, mammalian tyrosinase (Mus musculus, UniProt P11344)
T1 construct: Cellular lysates of Mel-Ab cells may be used as tyrosinase enzyme preparations; endogenous in cells; host or cells: Mel-Ab mouse melanocytes (C57BL/6-derived), cell lysate
T1 sequence (P11344 19-533): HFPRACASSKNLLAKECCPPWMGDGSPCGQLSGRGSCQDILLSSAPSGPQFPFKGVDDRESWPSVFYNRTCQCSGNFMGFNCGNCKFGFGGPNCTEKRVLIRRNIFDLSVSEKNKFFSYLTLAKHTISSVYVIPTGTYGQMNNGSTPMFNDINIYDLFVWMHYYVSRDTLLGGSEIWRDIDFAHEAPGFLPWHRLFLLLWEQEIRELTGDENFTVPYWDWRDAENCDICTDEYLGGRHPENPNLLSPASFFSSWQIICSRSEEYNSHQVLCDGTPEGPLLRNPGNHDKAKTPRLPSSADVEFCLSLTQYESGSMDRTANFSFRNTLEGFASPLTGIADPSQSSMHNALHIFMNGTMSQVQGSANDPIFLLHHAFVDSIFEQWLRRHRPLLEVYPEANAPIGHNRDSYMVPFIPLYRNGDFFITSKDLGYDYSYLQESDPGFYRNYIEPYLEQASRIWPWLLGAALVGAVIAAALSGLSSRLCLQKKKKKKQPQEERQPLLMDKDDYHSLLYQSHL
Test: cell-free mammalian-enzyme assay system (tyrosinase inhibition, Mel-Ab cell lysates)
Type: biochemical
Details: read-out: E: concentration of compound that produces 50% pigment inhibition in the cell-free mammalian-enzyme assay system
Source text: (§1) In the present invention, one or all of three in vitro bioassays can be utilized to evaluate the efficacy and toxicity of candidate skin-lightening compounds. The three bioassays characterize the compounds with regard to mammalian tyrosinase enzyme inhibition (cell free), pigmentation in melanocyte cultured cells, and cytotoxicity of mammalian cultured cells. Both cell-based pigmentation and cell-free enzymatic assays have been developed using the mammalian melanocyte cell line, Mel-Ab, a C57BL/6 mouse-derived cell line that produces high levels of melanin. A distinct advantage of this approach is that humans share substantial sequence similarities in their genes (DNA) and proteins (such as tyrosinase) with mice, relative to non-mammalian species (e.g., mushrooms). So, mouse Mel-Ab melanocytes can serve as adequate surrogates for human melanocytes for many pharmacologic purposes.
(§2) These adherent murine melanocytes are grown on tissue culture plastic in medium supplemented with fetal bovine serum, 12-O-tetradecanoylphorbol-13-acetate (TPA) to stimulate cell division via down-regulation of protein kinase C, [22, 23] and cholera toxin to stimulate adenylate cyclase activity in the absence of α-MSH. Cellular lysates of Mel-Ab cells may be used as tyrosinase enzyme preparations. Multi-well plate assays have been validated for enzyme inhibition (e.g., DOPA oxidation by colorimetric measurement or radiolabeled substrate incorporation into melanin) and for pigmentation assays on cultured Mel-Ab cells. After 4 days of treatment of cultured cells, melanin content is determined using a spectrophotometer at 400+ nm. This assay can detect an apparent loss in pigmentation resulting from either inhibition of de novo synthesis (e.g. via inhibition of tyrosinase, or the adenylate cyclase pathway, or another pathway) or a cytostatic/cytotoxic mechanism. It is therefore a broad primary screen. It is used in parallel with the tyrosinase enzymatic assay to determine whether an inhibitor of pigmentation at the cellular level is acting primarily at the enzyme level.
A distinct advantage of the screening systems (developed by the inventors of the present invention) is the focus on mammalian tyrosinase, as opposed to non-mammalian enzymes often used by other investigators, such as mushroom tyrosinase. Since the biochemical and pharmacologic characteristics of an enzyme or isozyme can vary dramatically between species of organisms (e.g., due to dissimilarities in primary, secondary, and tertiary structure), it is highly preferable that candidate topical skin lighteners intended for human use be discovered based on their biochemical action against a mammalian source of the enzyme. Mushroom tyrosinase (and in some instances plant polyphenol oxidases) has been used in the vast majority of prior inhibitor studies. […] Thus, the methods reported by the inventors of the present invention for screening against mammalian tyrosinase or within melanocytes is highly preferred over other possible screening strategies.
The substrate kinetic “affinity” of mammalian tyrosinase for L-tyrosine is approximately KM=600 μM. A potentially effective candidate skin lightening agent is considered to be desirable, active, and/or functional if it renders 50% inhibition of mammalian tyrosinase enzyme activity, at concentrations below half the enzyme's “affinity” for tyrosine in cell-free enzyme extracts (IC50≦300 μM) and pigment production in melanocyte cell cultures (IC50≦300 μM).
(§3) A first class of compounds based upon the template compound benzimidazolethiol (lower left structure) were tested for tyrosinase inhibition, cell culture pigment inhibition, and toxicity, by methods described in Curto, E. V., et al. (1999).

Row | Compound | IC50 [µM]
1 | CCOc1ccc2nc(S)sc2c1 [ID # 091] | > 1000
2 | COC(=O)c1cccc(N)c1 [ID # 092] | 79
3 | COc1ccc(OC)c(S)c1 [ID # 093] | 500
4 | [Se]=c1[nH]c2ccccc2[nH]1 [ID # 098] | 0.8
5 | COc1cccc(S)c1 [ID # 099] | 53
6 | COc1ccc(C(N)=S)cc1 [ID # 100] | 32
7 | CSc1ccc(S)cc1 [ID # 102] | 0.24
8 | COc1ccc(S)cc1OC [ID # 103] | 8
9 | S=c1[nH]c2cccnc2[nH]1 [ID # 135] | 4
10 | Sc1nc2ccccc2[nH]1 [ID # 138] | 0.25
11 | Cc1cccc2[nH]c(S)nc12 [ID # 140] | 0.12
12 | CC(=O)Nc1ccc(SC(C)=O)cc1 [ID # 148] | 500
13 | CC(=O)n1c(=S)[nH]c2ccccc21 [ID # 205] | 0.5

Tested on: not listed separately
Test: UV absorbance: extinction coefficient at wavelength of maximum absorbency
Type: physicochemical
Details: not given

Row | Compound | wavelength of maximum absorbency λmax [nm]
14 | COc1ccc(OC)c(S)c1 [ID # 093] | 305
15 | COc1cccc(S)c1 [ID # 099] | 265
16 | CSc1ccc(S)cc1 [ID # 102] | 280
17 | COc1ccc(S)cc1OC [ID # 103] | 250
18 | Sc1nc2ccccc2[nH]1 [ID # 138] | 300
19 | Cc1cccc2[nH]c(S)nc12 [ID # 140] | 305
20 | CC(=O)Nc1ccc(SC(C)=O)cc1 [ID # 148] | 255

Same assay, conditions: at λmax

Row | Compound | compound extinction coefficient ε [OD/M × cm]
21 | COc1ccc(OC)c(S)c1 [ID # 093] | 2700
22 | COc1cccc(S)c1 [ID # 099] | 3000
23 | CSc1ccc(S)cc1 [ID # 102] | 2300
24 | COc1ccc(S)cc1OC [ID # 103] | 4300
25 | Sc1nc2ccccc2[nH]1 [ID # 138] | 14300
26 | Cc1cccc2[nH]c(S)nc12 [ID # 140] | 6300
27 | CC(=O)Nc1ccc(SC(C)=O)cc1 [ID # 148] | 3300

Tested on: Mel-Ab melanocytes
Test: mammalian-melanocyte-culture pigment assay system
Type: cell-based, mouse
Details: Mus musculus, Mel-Ab, read-out: P: concentration of compound that produces 50% inhibition in the mammalian-melanocyte-culture pigment assay system
Source text: as §1, §2, §3

Row | Compound | IC50 [µM]
28 | COC(=O)c1cccc(N)c1 [ID # 092] | 236
29 | COc1cccc(S)c1 [ID # 099] | 85
30 | COc1ccc(C(N)=S)cc1 [ID # 100] | 62
31 | CSc1ccc(S)cc1 [ID # 102] | 115
32 | COc1ccc(S)cc1OC [ID # 103] | 8
33 | CC(=O)n1c(=S)[nH]c2ccccc21 [ID # 205] | 8.3

Same assay, conditions: read-out: P: concentration of compound that produces 50% inhibition in the mammalian-melanocyte-culture pigment assay system

Row | Compound | IC50 [µM]
34 | CCOc1ccc2nc(S)sc2c1 [ID # 091] | > 1000
35 | COc1ccc(OC)c(S)c1 [ID # 093] | 200
36 | [Se]=c1[nH]c2ccccc2[nH]1 [ID # 098] | 14
37 | S=c1[nH]c2cccnc2[nH]1 [ID # 135] | 256
38 | Cc1cccc2[nH]c(S)nc12 [ID # 140] | 2.4
39 | CC(=O)Nc1ccc(SC(C)=O)cc1 [ID # 148] | 30

Tested on: not given
Test: not given
Details: compared with HQ; cited from earlier work

Row | Compound | mutagenic activity
40 | O=C(O)c1cc(O)ccc1O [GA, 2,5-dihydroxybenzoic acid] | lacking the mutagenic activity

Tested on: Mel-Ab melanocytes
Test: mammalian-melanocyte-culture toxicity assay system
Type: cell-based, mouse
Details: Mus musculus, Mel-Ab, read-out: T: concentration of compound that kills 50% of cells in the mammalian-melanocyte-culture toxicity assay system
Source text: as §1
[6] It should be noted that many inhibitors identified in cell-free enzymatic assays might have subsequent difficulties with toxicity or delivery in melanocyte cell-based assays. Therefore, all three in vitro assays in combination provide an excellent characterization of candidate skin lightening compounds.
as §3

Row | Compound | IC50 [µM]
41 | COC(=O)c1cccc(N)c1 [ID # 092] | > 1000
42 | COc1cccc(S)c1 [ID # 099] | 202
43 | COc1ccc(C(N)=S)cc1 [ID # 100] | > 1000
44 | CSc1ccc(S)cc1 [ID # 102] | 126
45 | COc1ccc(S)cc1OC [ID # 103] | > 1000
46 | CC(=O)n1c(=S)[nH]c2ccccc21 [ID # 205] | 35

Same assay, conditions: read-out: T: concentration of compound that kills 50% of cells in the mammalian-melanocyte-culture toxicity assay system

Row | Compound | IC50 [µM]
47 | CCOc1ccc2nc(S)sc2c1 [ID # 091] | > 1000
48 | COc1ccc(OC)c(S)c1 [ID # 093] | 200
49 | [Se]=c1[nH]c2ccccc2[nH]1 [ID # 098] | 132
50 | S=c1[nH]c2cccnc2[nH]1 [ID # 135] | > 1000
51 | Cc1cccc2[nH]c(S)nc12 [ID # 140] | > 1000
52 | CC(=O)Nc1ccc(SC(C)=O)cc1 [ID # 148] | 125
